# Experimental data reported in article PMC11062894, “Protein-based bandpass filters for controlling cellular signaling with chemical inputs” (Nature Chemical Biology, 2023).
# Where “and” joins values, the source holds several entries; their conditions need not be identical. Equal entries are not always repeated.
# System: GEMS receptors with CBPvene (Bcl2–LD3 and Bcl2high variants), STAT3-driven SEAP in HEK293T cells
# Test: GEMS SEAP reporter assay, CBPvene (Bcl2high, LD3-v and Bcl2-v variants) with venetoclax
# Assay type: cell-based
# [1] = CBPVene-v4-LD3v1, Venetoclax 10 nM
# [2] = CBPVene-v4-LD3v1, Venetoclax 31.6 nM
# [3] = CBPVene-v4-LD3v1, Venetoclax 100 nM
# [4] = CBPVene-v4-LD3v1, Venetoclax 316 nM
# [5] = CBPVene-v4-LD3v1, Venetoclax 1000 nM
# [6] = CBPVene-v4-LD3v1, Venetoclax 3160 nM
# [7] = CBPVene-v4-LD3v1, Venetoclax 10000 nM
# [8] = CBPVene-v5, Venetoclax 10000 nM
# [9] = CBPVene-v5-Bcl2v2, Venetoclax 1 nM
# [10] = CBPVene-v5-Bcl2v2, Venetoclax 3.16 nM
# [11] = CBPVene-v5-Bcl2v2, Venetoclax 10 nM
# [12] = CBPVene-v5-Bcl2v2, Venetoclax 31.6 nM
# [13] = CBPVene-v5-Bcl2v2, Venetoclax 316 nM
structure (smiles),measurement,setting,value
CC1(C)CCC(CN2CCN(c3ccc(C(=O)NS(=O)(=O)c4ccc(NCC5CCOCC5)c([N+](=O)[O-])c4)c(Oc4cnc5[nH]ccc5c4)c3)CC2)=C(c2ccc(Cl)cc2)C1 [Venetoclax],Raw data Figure 5c,[1],19.6376 and 23.1796 and 21.4266
same,Raw data of Independent repeat of CBPVene-v4 vs CBPVene-v4-LD3v1,[1],12.5143 and 15.3613 and 14.2991
same,Normalized data Figure 5c,[2],33.2758 and 29.1991 and 22.5234
same,Raw data Figure 5c,[2],32.1154 and 36.1941 and 32.5835
same,Raw data of Independent repeat of CBPVene-v4 vs CBPVene-v4-LD3v1,[2],19.3224 and 24.3766 and 24.2685
same,Normalized data Figure 5c,[3],89.5011 and 73.3407 and 58.8514
same,Raw data Figure 5c,[3],86.38 and 90.9103 and 85.1375
same,Raw data of Independent repeat of CBPVene-v4 vs CBPVene-v4-LD3v1,[3],49.6855 and 59.8551 and 68.5591
same,Normalized data Figure 5c,[4],100
same,Raw data Figure 5c,[4],96.5128 and 123.956 and 144.665
same,Raw data of Independent repeat of CBPVene-v4 vs CBPVene-v4-LD3v1,[4],75.2259 and 81.7396 and 83.8142
same,Normalized data Figure 5c,[5],92.1259 and 70.027 and 66.0891
same,Raw data Figure 5c,[5],88.9133 and 86.8028 and 95.608
same,Raw data of Independent repeat of CBPVene-v4 vs CBPVene-v4-LD3v1,[5],55.2813 and 57.5308 and 55.9265
same,Normalized data Figure 5c,[6],41.115 and 38.8368 and 34.8585
same,Raw data Figure 5c,[6],39.6812 and 48.1406 and 50.4281
same,Raw data of Independent repeat of CBPVene-v4 vs CBPVene-v4-LD3v1,[6],23.1338 and 27.3241 and 29.5684
same,Normalized data Figure 5c,[7],12.9494 and 11.4961 and 9.578
same,Raw data Figure 5c,[7],12.4978 and 14.2501 and 13.8554
same,Raw data of Independent repeat of CBPVene-v4 vs CBPVene-v4-LD3v1,[7],8.884 and 10.4059 and 11.3993
same,Raw data of Independent repeat of CBPVene-v5 vs CBPVene-v5-LD3v1,"CBPVene-v5, Venetoclax 0.01 nM",29.6718 and 24.6839 and 26.501
same,Normalized data Figure 5c,"CBPVene-v5, Venetoclax 1 nM",7.442 and 6.278 and 6.718
same,Raw data Figure 5c,"CBPVene-v5, Venetoclax 1 nM",29.5956 and 26.0853 and 29.9849
same,Normalized data Figure 5c,"CBPVene-v5, Venetoclax 3.16 nM",9.477 and 7.971 and 8.021
same,Normalized data Figure 5f,"CBPVene-v5, Venetoclax 3.16 nM",5.255 and 4.508 and 3.901
same,Raw data Figure 5c,"CBPVene-v5, Venetoclax 3.16 nM",37.6876 and 33.119 and 35.8015
same,Raw data Figure 5f,"CBPVene-v5, Venetoclax 3.16 nM",30.3563 and 26.3908 and 26.6345
same,Raw data of Independent repeat of CBPVene-v5 vs CBPVene-v5-LD3v1,"CBPVene-v5, Venetoclax 3.16 nM",30.3563 and 26.3908 and 26.6345
same,Normalized data Figure 5c,"CBPVene-v5, Venetoclax 10 nM",11.5779 and 11.0151 and 10.8723
same,Normalized data Figure 5f,"CBPVene-v5, Venetoclax 10 nM",9.191 and 6.8128 and 6.589
same,Raw data Figure 5c,"CBPVene-v5, Venetoclax 10 nM",46.0425 and 45.7651 and 48.5281
same,Raw data Figure 5f,"CBPVene-v5, Venetoclax 10 nM",53.0904 and 39.8802 and 44.9895
same,Raw data of Independent repeat of CBPVene-v5 vs CBPVene-v5-LD3v1,"CBPVene-v5, Venetoclax 10 nM",53.0904 and 39.8802 and 44.9895
same,Normalized data Figure 5c,"CBPVene-v5, Venetoclax 31.6 nM",35.6775 and 32.4284 and 35.7596
same,Normalized data Figure 5f,"CBPVene-v5, Venetoclax 31.6 nM",4.7681 and 4.341 and 3.633
same,Raw data Figure 5c,"CBPVene-v5, Venetoclax 31.6 nM",141.881 and 134.732 and 159.612
same,Raw data Figure 5f,"CBPVene-v5, Venetoclax 31.6 nM",27.5418 and 25.4102 and 24.8086
same,Raw data of Independent repeat of CBPVene-v5 vs CBPVene-v5-LD3v1,"CBPVene-v5, Venetoclax 31.6 nM",27.5418 and 25.4102 and 24.8086
same,Normalized data Figure 5c,"CBPVene-v5, Venetoclax 100 nM",85.9499 and 82.2485 and 75.1301
same,Normalized data Figure 5f,"CBPVene-v5, Venetoclax 100 nM",23.389 and 18.2031 and 16.6277
same,Raw data Figure 5c,"CBPVene-v5, Venetoclax 100 nM",341.802
same,Raw data Figure 5f,"CBPVene-v5, Venetoclax 100 nM",135.101
same,Raw data of Independent repeat of CBPVene-v5 vs CBPVene-v5-LD3v1,"CBPVene-v5, Venetoclax 100 nM",135.101 and 106.556 and 113.538
same,Normalized data Figure 5c,"CBPVene-v5, Venetoclax 316 nM",100 and 99.2625
same,Normalized data Figure 5f,"CBPVene-v5, Venetoclax 316 nM",90.5991 and 73.5543 and 71.7832
same,Raw data Figure 5c,"CBPVene-v5, Venetoclax 316 nM",397.676 and 415.475 and 443.055
same,Raw data Figure 5f,"CBPVene-v5, Venetoclax 316 nM",523.324 and 430.565 and 490.151
same,Raw data of Independent repeat of CBPVene-v5 vs CBPVene-v5-LD3v1,"CBPVene-v5, Venetoclax 316 nM",523.324 and 430.565 and 490.151
same,Normalized data Figure 5c,"CBPVene-v5, Venetoclax 1000 nM",94.7389 and 93.854 and 100
same,Normalized data Figure 5f,"CBPVene-v5, Venetoclax 1000 nM",100
same,Raw data Figure 5c,"CBPVene-v5, Venetoclax 1000 nM",376.754 and 389.94 and 446.347
same,Raw data Figure 5f,"CBPVene-v5, Venetoclax 1000 nM",577.626 and 585.371 and 682.822
same,Raw data of Independent repeat of CBPVene-v5 vs CBPVene-v5-LD3v1,"CBPVene-v5, Venetoclax 1000 nM",585.371 and 682.822
same,Normalized data Figure 5c,"CBPVene-v5, Venetoclax 3160 nM",78.0027 and 76.1858 and 76.8944
same,Normalized data Figure 5f,"CBPVene-v5, Venetoclax 3160 nM",79.8503 and 79.8999 and 73.1753
same,Raw data Figure 5c,"CBPVene-v5, Venetoclax 3160 nM",310.198 and 316.533 and 343.216
same,Raw data Figure 5f,"CBPVene-v5, Venetoclax 3160 nM",461.236 and 467.711 and 499.656
same,Raw data of Independent repeat of CBPVene-v5 vs CBPVene-v5-LD3v1,"CBPVene-v5, Venetoclax 3160 nM",461.236 and 467.711 and 499.656
same,Normalized data Figure 5c,[8],34.0541 and 31.651 and 32.0007
same,Normalized data Figure 5f,[8],53.1633 and 46.1135 and 46.4962
same,Raw data Figure 5c,[8],135.425 and 131.502 and 142.834
same,Raw data Figure 5f,[8],307.085 and 269.935 and 317.486
same,Normalized data Figure 5f,[9],20.7725 and 19.0354 and 15.7869
same,Raw data Figure 5f,[9],37.9718 and 36.6065 and 35.2814
same,Normalized data Figure 5f,[10],20.3227 and 21.226 and 17.4104
same,Raw data Figure 5f,[10],37.1496 and 40.8191 and 38.9099
same,Normalized data Figure 5f,[11],19.4559 and 21.7686 and 18.6086
same,Raw data Figure 5f,[11],35.5651 and 41.8626 and 41.5876
same,Normalized data Figure 5f,[12],37.718 and 36.6086 and 30.2912
same,Raw data Figure 5f,[12],68.9479 and 70.401 and 67.6966
same,Normalized data Figure 5f,"CBPVene-v5-Bcl2v2, Venetoclax 100 nM",81.9466 and 81.1265 and 85.7326
same,Normalized data Figure 5f,[13],100
same,Raw data Figure 5f,[13],182.798 and 192.307 and 223.486
